Key:
Details in all cases: 72 h
Caco-2 [1] = test: cell viability relative to DMSO; higher = less toxic
Calu-3 [2] = test: as above
HepG2 [3] = test: as above
U2OS [4] = test: as above
Vero E6 [5] = test: as above
Caco-2 [6] = test: relative viability EC50 (midpoint between 100% and the lowest measured viability); higher = less toxic
Calu-3 [7] = test: as above
HepG2 [8] = test: as above
U2OS [9] = test: as above
Vero E6 [10] = test: as above
Caco-2 [11] = test: drug sensitivity score (DSS) for viability; higher = more toxic; extreme values may be limits of the assay
Calu-3 [12] = test: as above
HepG2 [13] = test: as above
U2OS [14] = test: as above
Vero E6 [15] = test: as above

| Compound | cell viability (Caco-2 [1]; 1 nM) | cell viability (Caco-2 [1]; 10 nM) | cell viability (Caco-2 [1]; 100 nM) | cell viability (Caco-2 [1]; 1000 nM) | cell viability (Caco-2 [1]; 10000 nM) | cell viability (Calu-3 [2]; 1 nM) | cell viability (Calu-3 [2]; 10 nM) | cell viability (Calu-3 [2]; 100 nM) | cell viability (Calu-3 [2]; 1000 nM) | cell viability (Calu-3 [2]; 10000 nM) | cell viability (HepG2 [3]; 1 nM) | cell viability (HepG2 [3]; 10 nM) | cell viability (HepG2 [3]; 100 nM) | cell viability (HepG2 [3]; 1000 nM) | cell viability (HepG2 [3]; 10000 nM) | cell viability (U2OS [4]; 1 nM) | cell viability (U2OS [4]; 10 nM) | cell viability (U2OS [4]; 100 nM) | cell viability (U2OS [4]; 1000 nM) | cell viability (U2OS [4]; 10000 nM) | cell viability (Vero E6 [5]; 1 nM) | cell viability (Vero E6 [5]; 10 nM) | cell viability (Vero E6 [5]; 100 nM) | cell viability (Vero E6 [5]; 1000 nM) | cell viability (Vero E6 [5]; 10000 nM) | relative viability EC50 (Caco-2 [6]) | relative viability EC50 (Calu-3 [7]) | relative viability EC50 (HepG2 [8]) | relative viability EC50 (U2OS [9]) | relative viability EC50 (Vero E6 [10]) | drug sensitivity score (Caco-2 [11]) | drug sensitivity score (Calu-3 [12]) | drug sensitivity score (HepG2 [13]) | drug sensitivity score (U2OS [14]) | drug sensitivity score (Vero E6 [15]) |
| --- | --- | --- | --- | --- | --- | --- | --- | --- | --- | --- | --- | --- | --- | --- | --- | --- | --- | --- | --- | --- | --- | --- | --- | --- | --- | --- | --- | --- | --- | --- | --- | --- | --- | --- | --- |
| CCn1c(=O)[nH]c2ccccc21 [1-EBIO] | 94.4% | 93.5% | 98% | 100% | 91% | 99.1% | 105% | 104% | 106% | 81.8% | 96.7% | 98.6% | 91.4% | 84% | 110% | 95.7% | 94.3% | 104% | 98.4% | 93.2% | 97.4% | 97.5% | 89.7% | 98.2% | 104% | > 10 µM | > 10 µM | > 10 µM | > 10 µM | > 10 µM | 0 | 0.3 | 0 | 0 | 0 |
| c1ccc2oc(C3=NCCN3)cc2c1 [2-BFI] | 102% | 96.2% | 97.7% | 93.6% | 112% | 95.9% | 99.7% | 102% | 100% | 95.7% | 97.9% | 98.3% | 87.5% | 98% | 100% | 100% | 96.7% | 99.7% | 99.9% | 97.7% | 93.8% | 100% | 90.5% | 94.4% | 107% | > 10 µM | > 10 µM | > 10 µM | > 10 µM | > 10 µM | 0 | 0 | 0 | 0 | 0 |
